Measured values: patent US10829486B2, “Isoxazole derivatives as FXR agonists and methods of use thereof” (ENANTA PHARMACEUTICALS, INC., priority 2018, dated 2020)

Biological target: T1, human FXR (NR1H4) (Homo sapiens, UniProt Q96RI1)
T1 construct: host or cells: CHO (Chinese hamster ovary) reporter cells
T1 sequence (Q96RI1 1-486): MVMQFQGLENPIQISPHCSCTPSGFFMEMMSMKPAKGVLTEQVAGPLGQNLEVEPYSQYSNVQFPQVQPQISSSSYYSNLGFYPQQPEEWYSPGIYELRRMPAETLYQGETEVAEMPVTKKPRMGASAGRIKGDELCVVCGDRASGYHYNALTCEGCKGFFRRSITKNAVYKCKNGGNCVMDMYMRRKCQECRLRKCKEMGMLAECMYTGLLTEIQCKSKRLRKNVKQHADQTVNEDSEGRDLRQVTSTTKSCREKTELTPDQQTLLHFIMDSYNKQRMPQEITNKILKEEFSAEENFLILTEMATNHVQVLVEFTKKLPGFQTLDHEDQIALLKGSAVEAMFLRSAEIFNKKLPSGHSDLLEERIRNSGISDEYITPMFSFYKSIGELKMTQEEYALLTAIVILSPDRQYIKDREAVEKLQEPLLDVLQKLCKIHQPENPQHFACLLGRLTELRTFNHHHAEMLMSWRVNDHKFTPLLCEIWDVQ
Assay: Human FXR (NR1H4) Assay (Gal4 promoter driven luciferase reporter assay in CHO cells)
Assay type: cell-based
Details: for EC50: CHO cells expressing human NR1H4, 22 hours incubation, potency ranges; for Emax: efficacy normalized to CDCA set as 100%, CHO cells expressing human NR1H4
Source text: Determination of a ligand mediated Gal4 promoter driven transactivati on to quantify ligand binding mediated activation of FXR. FXR Reporter Assay kit purchased from Indigo Bioscience (Catalogue number: IB00601) to determine the potency and efficacy of compound developed by Enanta that can induce FXR activation. The principle application of this reporter assay system is to quantify functional activity of human FXR. The assay utilizes non-human mammalian cells, CHO (Chinese hamster ovary) cells engineered to express human NR1H4 protein (referred to as FXR). Reporter cells also incorporate the cDNA encoding beetle luciferase which catalyzes the substrates and yields photon emission. Luminescence intensity of the reaction is quantified using a plate-reading luminometer, Envision. Reporter Cells include the luciferase reporter gene functionally linked to an FXR responsive promoter. Thus, quantifying changes in luciferase expression in the treated reporter cells provides a sensitive surrogate measure of the changes in FXR activity. EC50 and efficacy (normalize to CDCA set as 100%) is determined by XLFit. The assay is according to the manufacturer's instructions. In brief, the assay was performed in white, 96 well plates using final volume of 100 ul containing cells with different doses of compounds. Retrieve Reporter Cells from −80° C. storage. Perform a rapid thaw of the frozen cells by transferring a 10 ml volume of 37° C. cell recovery medium into the tube of frozen cells. Recap the tube of Reporter Cells and immediately place it in a 37° C. water bath for 5-10 minutes. Retrieve the tube of Reporter Cell Suspension from the water bath. Sanitize the outside surface of the tube with a 70% alcohol swab, and then transfer it into the cell culture hood. Dispense 90 μl of cell suspension into each well of the 96-well Assay Plate. Transfer the plate into 37° C. incubator, allowing the cells adherent to the bottom of the well. Dilute compounds in Dilution Plate (DP), and administrate to cells at Assay Plate (AP). DMSO content of the samples was kept at 0.2%. Cells were incubated for additional 22 hours before luciferase activities were measured. Thirty minutes before intending to quantify FXR activity, remove Detection Substrate and Detection Buffer from the refrigerator and place them in a low-light area so that they may equilibrate to room temperature. Remove the plate's lid and discard all media contents by ejecting it into an appropriate waste container. Gently tap the inverted plate onto a clean absorbent paper towel to remove residual droplets. Cells will remain tightly adhered to well bottoms. Add 100 μl of luciferase detection reagent to each well of the assay plate. Allow the assay plate to rest at room temperature for at least 5 minutes following the addition of LDR. Set the instrument (Envision) to perform a single 5 second “plate shake” prior to reading the first assay well. Read time may be 0.5 second (500 mSec) per well. EC50 and Efficacy (normalize to CDCA set as 100%) is determined by XLFit.
The efficacy was normalized to CDCA set as 100%. (A=EC50<0.1 μM; B=0.1 μM<EC50<1.0 μM; C=1.0 μM<EC50<10 μM; D=EC50>10 μM).

Compound	EC50 [nM]	Emax [%]
CC(C)Oc1cc(C(=O)O)cc2sc(N(C)[C@@H]3CC[C@H](OCc4c(-c5c(Cl)cccc5Cl)noc4C4CC4)C3)nc12 [Example 1]	< 100	96
CC(C)Oc1cc(C(=O)O)cc2sc(N(C)[C@H]3CC[C@@H](OCc4c(-c5c(Cl)cccc5Cl)noc4C4CC4)C3)nc12 [Example 2]	< 100	75
CC(C)Oc1cc(C(=O)O)cc2sc(N(C)[C@H]3CC[C@H](OCc4c(-c5c(Cl)cccc5Cl)noc4C4CC4)C3)nc12 [Example 3]	100 to 1000	58
CC(C)Oc1cc(C(=O)O)cc2sc(N(C)[C@@H]3CC[C@@H](OCc4c(-c5c(Cl)cccc5Cl)noc4C4CC4)C3)nc12 [Example 4]	100 to 1000	73
CC(C)Oc1cc(C(=O)O)cc2sc(N(C)[C@H]3CC[C@H](OCc4c(-c5c(Cl)cccc5Cl)noc4C4CC4)CC3)nc12 [Example 5]	< 100	85
CC(C)Oc1cc(C(=O)O)cc2sc(N(C)[C@@H]3CC[C@H](OCc4c(-c5ccccc5OC(F)(F)F)noc4C4CC4)C3)nc12 [Example 6]	< 100	67
CN(c1ccc2cc(C(=O)O)ccc2n1)[C@@H]1CC[C@H](OCc2c(-c3ccccc3OC(F)(F)F)noc2C2CC2)C1 [Example 7]	< 100	57
CC(C)Oc1cc(C(=O)O)cc2sc(N[C@@H]3CC[C@H](OCc4c(-c5c(Cl)cccc5Cl)noc4C4CC4)C3)nc12 [Example 8]	< 100	99
O=C(O)c1cc(F)c2nc(N[C@@H]3CC[C@H](OCc4c(-c5c(Cl)cccc5Cl)noc4C4CC4)C3)sc2c1 [Example 9]	< 100	104
O=C(O)c1cc(F)c2nc(N[C@@H]3CCC(OCc4c(-c5ccccc5OC(F)(F)F)noc4C4CC4)C3)sc2c1 (stereo partly drawn) [Example 10]	< 100	81
CC(C)Oc1cc(C(=O)O)cc2sc(N[C@@H]3CC[C@H](OCc4c(-c5ccccc5OC(F)(F)F)noc4C4CC4)C3)nc12 [Example 11]	< 100	92
CC(C)Oc1cc(C(=O)O)cc2sc(N[C@H]3CC[C@@H](OCc4c(-c5c(Cl)cccc5Cl)noc4C4CC4)CC3)nc12 [Example 14, 2-(((1s,4s)-4-((5-cyclopropyl-3-(2,6-dichlorophenyl)isoxazol-4-yl)methoxy)cyclohexyl)amino)-4-isopropoxybenzo[d]thiazole-6-carboxylic acid]	< 100	84
CC(C)Oc1cc(C(=O)O)cc2sc(N(C)[C@H]3CC[C@@H](OCc4c(-c5c(Cl)cccc5Cl)noc4C4CC4)CC3)nc12 [Example 15, 2-(((1s,4s)-4-((5-cyclopropyl-3-(2,6-dichlorophenyl)isoxazol-4-yl)methoxy)cyclohexyl)(methyl)amino)-4-isopropoxybenzo[d]thiazole-6-carboxylic acid]	< 100	65
O=C(O)c1cc(F)c2nc(N[C@H]3CC[C@@H](OCc4c(-c5c(Cl)cccc5Cl)noc4C4CC4)CC3)sc2c1 [Example 16]	100 to 1000	24
CC(C)Oc1cc(C(=O)O)cc2sc(N[C@H]3CC[C@@H](OCc4c(-c5ccccc5OC(F)(F)F)noc4C4CC4)CC3)nc12 [Example 17]	< 100	91
O=C(O)c1ccc2nc(N[C@H]3CC[C@@H](OCc4c(-c5c(Cl)cccc5Cl)noc4C4CC4)CC3)sc2c1 [Example 18]	< 100	52
O=C(O)c1ccc2nc(N[C@@H]3CCC(OCc4c(-c5c(Cl)cccc5Cl)noc4C4CC4)C3)sc2c1 (stereo partly drawn) [Example 19]	100 to 1000	116
CC(C)Oc1cc(C(=O)NS(=O)(=O)C2CC2)cc2sc(N[C@@H]3CCC(OCc4c(-c5c(Cl)cccc5Cl)noc4C4CC4)C3)nc12 (stereo partly drawn) [Example 20]	100 to 1000	111
